Measurements: patent US9085555B2, “Complement pathway modulators and uses thereof” (priority 2011, dated 2015)

Target: Factor D (Homo sapiens (Human), UniProt P00746)
Assay: biochemical
Type: biochemical
Details: read-out: IC50

Sequence of Factor D (P00746 26-253): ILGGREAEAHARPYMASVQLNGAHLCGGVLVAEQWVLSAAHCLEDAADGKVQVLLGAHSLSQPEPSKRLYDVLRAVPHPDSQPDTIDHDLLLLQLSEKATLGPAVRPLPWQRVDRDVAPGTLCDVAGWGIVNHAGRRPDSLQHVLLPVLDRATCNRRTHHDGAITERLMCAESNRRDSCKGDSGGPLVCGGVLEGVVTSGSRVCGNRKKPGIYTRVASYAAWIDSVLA

SMILES | IC50 [nM]
CC(=O)c1nn(CC(=O)N2[C@@H]3C[C@@H]3C[C@H]2C(=O)Nc2cccc(Br)n2)c2ccncc12 [Example 740, (1R,3S,5R)-2-[2-(3-Acetyl-pyrazolo[4,3-c]pyridin-1-yl)-acetyl]-2-aza-bicyclo[3.1.0] hexane-3-carboxylic acid (6-bromo-pyridin-2-yl)-amide] | 13
NC(=O)c1nn(CC(=O)N2[C@@H]3C[C@@H]3C[C@H]2C(=O)Nc2nc(Br)cs2)c2ccccc12 [Example 742, 1-{2-[(1R,3S,5R)-3-(4-Bromo-thiazol-2-ylcarbamoyl)-2-aza-bicyclo[3.1.0]hex-2-yl]-2-oxo-ethyl}-1H-indazole-3-carboxylic acid amide] | 37
Cc1cc2c(C(N)=O)nn(CC(=O)N3[C@@H]4C[C@@H]4C[C@H]3C(=O)Nc3cccc(Br)n3)c2c(C)n1 [Example 743, 1-{2-[(1R,3S,5R)-3-(6-Bromo-pyridin-2-ylcarbamoyl)-2-aza-bicyclo[3.1.0]hex-2-yl]-2-oxo-ethyl}-5,7-dimethyl-1H-pyrazolo[3,4-c]pyridine-3-carboxylic acid amide] | 5
C[C@@]12C[C@@H](C(=O)Nc3cccc(Br)n3)N(C(=O)Cn3nc(C(N)=O)c4ccccc43)[C@@H]1C2 [Example 744, 1-{2-[(1R,3S,5R)-3-(6-Bromo-pyridin-2-ylcarbamoyl)-5-methyl-2-aza-bicyclo[3.1.0]hex-2-yl]-2-oxo-ethyl}-1H-indazole-3-carboxylic acid amide] | 4
Cc1cc2c(C(N)=O)nn(CC(=O)N3[C@H](C(=O)Nc4cccc(Br)n4)C[C@@]4(C)C[C@@H]34)c2cn1 [Example 745, 1-{2-[(1R,3S,5R)-3-(6-Bromo-pyridin-2-ylcarbamoyl)-5-methyl-2-aza-bicyclo[3.1.0]hex-2-yl]-2-oxo-ethyl}-5-methyl-1H-pyrazolo[3,4-c]pyridine-3-carboxylic acid amide] | 5
NC(=O)c1nn(CC(=O)N2C[C@H]3C[C@H]3[C@H]2C(=O)Nc2cccc(Br)n2)c2ccccc12 [Example 746, 1-{2-[(1R,2S,5S)-2-(6-Bromo-pyridin-2-ylcarbamoyl)-3-aza-bicyclo[3.1.0]hex-3-yl]-2-oxo-ethyl}-1H-indazole-3-carboxylic acid amide] | 7
Cc1nccc2c(C(N)=O)nn(CC(=O)N3[C@@H]4C[C@@H]4C[C@H]3C(=O)Nc3cccc(Br)n3)c12 [Example 747, 1-{2-[(1R,3S,5R)-3-(6-Bromo-pyridin-2-ylcarbamoyl)-2-aza-bicyclo[3.1.0]hex-2-yl]-2-oxo-ethyl}-7-methyl-1H-pyrazolo [3,4-c]pyridine-3-carboxylic acid amide] | 13
CC(=O)c1nn(CC(=O)N2[C@@H]3C[C@@H]3C[C@H]2C(=O)Nc2cccc(Br)n2)c2ccc(OCc3ncccn3)cc12 [Example 748, (1R,3S,5R)-2-{2-[3-Acetyl-5-(pyrimidin-2-ylmethoxy)-indazol-1-yl]-acetyl}-2-aza-bicyclo[3.1.0]hexane-3-carboxylic acid (6-bromo-pyridin-2-yl)-amide] | 4
NC(=O)c1nn(CC(=O)N2[C@@H]3C[C@@H]3C[C@H]2C(=O)Nc2cccc(Br)n2)c2cc(Cl)ccc12 [Example 749, 1-{2-[(1R,3S,5R)-3-(6-Bromo-pyridin-2-ylcarbamoyl)-2-aza-bicyclo[3.1.0]hex-2-yl]-2-oxo-ethyl}-6-chloro-1H-indazole-3-carboxylic acid amide] | 4
CC(=O)c1cn(CC(=O)N2[C@@H]3C[C@@H]3C[C@H]2C(=O)Nc2cccc(Br)n2)c2ncccc12 [Example 750, (1R,3S,5R)-2-[2-(3-Acetyl-pyrrolo[2,3-b]pyridin-1-yl)-acetyl]-2-aza-bicyclo[3.1.0] hexane-3-carboxylic acid (6-bromo-pyridin-2-yl)-amide] | 34
CC(=O)c1cn(CC(=O)N2[C@@H]3C[C@@H]3C[C@H]2C(=O)Nc2cccc(Br)n2)c2ccncc12 [Example 751, (1R,3S,5R)-2-[2-(3-Acetyl-pyrrolo[3,2-c]pyridin-1-yl)-acetyl]-2-aza-bicyclo[3.1.0] hexane-3-carboxylic acid (6-bromo-pyridin-2-yl)-amide] | 81
CC(=O)c1cn(CC(=O)N2[C@@H]3C[C@@H]3C[C@H]2C(=O)Nc2cccc(Br)n2)c2nnccc12 [Example 752, (1R,3S,5R)-2-[2-(5-Acetyl-pyrrolo[2,3-c]pyridazin-7-yl)-acetyl]-2-aza-bicyclo[3.1.0] hexane-3-carboxylic acid (6-bromo-pyridin-2-yl)-amide] | 95
CO[C@H]1[C@@H](C(=O)Nc2cccc(Br)n2)N(C(=O)Cn2nc(C(N)=O)c3ccccc32)C[C@@H]1F [Example 754, 1-{2-[(2S,3S,4S)-2-(6-Bromo-pyridin-2-ylcarbamoyl)-4-fluoro-3-methoxy-pyrrolidin-1-yl]-2-oxo-ethyl}-1H-indazole-3-carboxylic acid amide] | 5
CO[C@H]1[C@@H](C(=O)Nc2cccc(Br)c2F)N(C(=O)Cn2nc(C(N)=O)c3ccccc32)C[C@@H]1F [Example 755, 1-{2-[(2S,3S,4S)-2-(3-Bromo-2-fluoro-phenylcarbamoyl)-4-fluoro-3-methoxy-pyrrolidin-1-yl]-2-oxo-ethyl}-1H-indazole-3-carboxylic acid amide] | 17
CO[C@H]1[C@@H](C(=O)Nc2cccc(Br)n2)N(C(=O)Cn2nc(C(C)=O)c3ccccc32)C[C@@H]1F [Example 756, (2S,3S,4S)-1-[2-(3-Acetyl-indazole-1-yl)-acetyl]-4-fluoro-3-methoxy-pyrrolidine-2-carboxylic acid (6-bromo-pyridin-2-yl)-amide] | 7
CC(=O)c1nn(CC(=O)N2[C@@H]3C[C@@H]3C[C@H]2C(=O)Nc2cncc(Br)n2)c2ccccc12 [Example 757, (1R,3S,5R)-2-[2-(3-Acetyl-indazol-1-yl)-acetyl]-2-aza-bicyclo[3.1.0]hexane-3-carboxylic acid (6-bromo-pyrazin-2-yl)-amide] | 3
NC(=O)c1nn(CC(=O)N2[C@H](C(=O)Nc3cccc(OC(F)(F)F)c3F)C[C@@]3(CO)C[C@@H]23)c2ccccc12 [Example 758, 1-{2-[(1R,3S,5S)-3-(2-Fluoro-3-trifluoromethoxy-phenylcarbamoyl)-5-hydroxymethyl-2-aza-bicyclo[3.1.0]hex-2-yl]-2-oxo-ethyl}-1H-indazole-3-carboxylic acid amide] | 64
NC(=O)c1nn(CC(=O)N2[C@H](C(=O)Nc3cccc(Br)c3F)C[C@@]3(CO)C[C@@H]23)c2ccccc12 [Example 759, 1-{2-[(1R,3S,5S)-3-(3-Bromo-2-fluoro-phenylcarbamoyl)-5-hydroxymethyl-2-aza-bicyclo[3.1.0]hex-2-yl]-2-oxo-ethyl}-1H-indazole-3-carboxylic acid amide] | 9
NC(=O)c1nn(CC(=O)N2[C@H](C(=O)Nc3cccc(Br)n3)C[C@@]3(CO)C[C@@H]23)c2ccccc12 [Example 760, 1-{2-[(1R,3S,5S)-3-(6-Bromo-pyridin-2-ylcarbamoyl)-5-hydroxymethyl-2-aza-bicyclo[3.1.0]hex-2-yl]-2-oxo-ethyl}-1H-indazole-3-carboxylic acid amide] | 12
NC(=O)n1cc(NC(=O)N2C[C@H]3C[C@H]3[C@H]2C(=O)Nc2cccc(Br)n2)c2ccccc21 [Example 763, (1R,2S,5S)-3-Aza-bicyclo[3.1.0]hexane-2,3-dicarboxylic acid 2-[(6-bromo-pyridin-2-yl)-amide]3-[(1-carbamoyl-1H-indol-3-yl)-amide]] | 14
